Earlier results on one compound are cited in PMC4486055 (Cancer chemotherapy and pharmacology, 2014).

For the series the following is noted: clinical development; cited from earlier work.

Consider `CN[C@@H]1C[C@H]2O[C@@](C)([C@@H]1OC)n1c3ccccc3c3c4c(c5c6ccccc6n2c5c31)C(=O)N[C@H]4O` [UCN-01, 7-hydroxyl-staurosporine], for which the Dose-limiting toxicity entry is “prominent dose-limiting hyperglycemia”.
